Results as given in paper PMC3914206.

Legend:
Assay type in all cases: binding
[1] = target: T1, panel of 442 kinases (Homo sapiens, UniProt P00533, G719S); conditions: Compound Concentration 10 µM
T1 construct: purchased KINOMEscan
Source text: (§1) We assessed the selectivity of members of this scaffold using the KINOMEscan methodology across a near comprehensive panel of 442 kinases [[18,27]].

[2] = target: T2, panel of 442 kinases (Homo sapiens, UniProt P42336, E545K); conditions: Compound Concentration 10 µM
T2 construct: purchased KINOMEscan
T2 sequence (P42336 whole entry E545K): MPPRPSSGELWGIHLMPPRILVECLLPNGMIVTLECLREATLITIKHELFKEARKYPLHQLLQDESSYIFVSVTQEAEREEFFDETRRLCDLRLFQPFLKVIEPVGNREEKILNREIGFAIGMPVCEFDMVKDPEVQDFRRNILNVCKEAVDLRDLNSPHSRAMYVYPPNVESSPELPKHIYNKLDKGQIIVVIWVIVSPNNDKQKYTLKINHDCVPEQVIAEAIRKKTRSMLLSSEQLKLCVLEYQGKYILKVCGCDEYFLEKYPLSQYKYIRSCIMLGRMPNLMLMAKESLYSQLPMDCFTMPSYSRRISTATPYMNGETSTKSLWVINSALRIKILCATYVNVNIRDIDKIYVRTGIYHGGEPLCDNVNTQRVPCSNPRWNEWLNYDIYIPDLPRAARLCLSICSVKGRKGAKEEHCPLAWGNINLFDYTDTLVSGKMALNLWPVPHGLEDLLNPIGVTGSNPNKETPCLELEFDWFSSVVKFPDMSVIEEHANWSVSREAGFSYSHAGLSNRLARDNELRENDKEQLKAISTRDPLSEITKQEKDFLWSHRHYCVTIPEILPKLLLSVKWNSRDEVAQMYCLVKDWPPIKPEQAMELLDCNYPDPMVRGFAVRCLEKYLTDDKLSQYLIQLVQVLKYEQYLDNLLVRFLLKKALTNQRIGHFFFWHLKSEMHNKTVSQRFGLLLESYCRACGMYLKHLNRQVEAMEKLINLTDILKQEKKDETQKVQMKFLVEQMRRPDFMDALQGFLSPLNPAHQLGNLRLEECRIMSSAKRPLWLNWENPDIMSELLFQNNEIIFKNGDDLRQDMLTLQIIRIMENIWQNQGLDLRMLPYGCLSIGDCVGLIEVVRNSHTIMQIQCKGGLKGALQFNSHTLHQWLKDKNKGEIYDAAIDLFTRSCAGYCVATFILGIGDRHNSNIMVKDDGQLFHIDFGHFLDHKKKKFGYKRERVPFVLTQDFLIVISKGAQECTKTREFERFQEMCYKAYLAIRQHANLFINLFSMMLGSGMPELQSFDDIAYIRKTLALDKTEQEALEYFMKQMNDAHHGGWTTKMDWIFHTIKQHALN
Source text: as §1

[3] = target: T3, panel of 442 kinases (Homo sapiens, UniProt P78362); conditions: kinase SRPK2; compound concentration 10 µM
T3 construct: purchased KINOMEscan
T3 sequence (P78362 whole entry): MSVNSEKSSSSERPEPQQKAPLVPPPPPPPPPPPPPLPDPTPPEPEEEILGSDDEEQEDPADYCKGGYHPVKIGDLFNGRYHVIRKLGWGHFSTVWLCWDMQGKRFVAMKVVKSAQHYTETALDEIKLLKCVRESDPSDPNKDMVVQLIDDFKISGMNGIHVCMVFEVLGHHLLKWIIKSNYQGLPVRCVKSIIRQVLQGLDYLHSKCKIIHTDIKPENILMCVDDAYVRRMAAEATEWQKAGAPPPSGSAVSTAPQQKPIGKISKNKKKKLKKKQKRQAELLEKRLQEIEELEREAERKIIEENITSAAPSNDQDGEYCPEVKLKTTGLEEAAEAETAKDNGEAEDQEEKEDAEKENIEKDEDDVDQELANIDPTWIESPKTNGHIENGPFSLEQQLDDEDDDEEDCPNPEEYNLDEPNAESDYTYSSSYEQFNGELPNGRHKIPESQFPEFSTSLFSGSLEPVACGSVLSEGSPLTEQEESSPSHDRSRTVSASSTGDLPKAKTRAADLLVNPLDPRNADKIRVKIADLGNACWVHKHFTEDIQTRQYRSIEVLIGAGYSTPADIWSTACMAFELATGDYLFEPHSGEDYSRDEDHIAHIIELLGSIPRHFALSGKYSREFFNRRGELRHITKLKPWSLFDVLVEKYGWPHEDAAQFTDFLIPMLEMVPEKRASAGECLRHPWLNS
Source text: as §1

T1 sequence (P00533 25-1210 G719S): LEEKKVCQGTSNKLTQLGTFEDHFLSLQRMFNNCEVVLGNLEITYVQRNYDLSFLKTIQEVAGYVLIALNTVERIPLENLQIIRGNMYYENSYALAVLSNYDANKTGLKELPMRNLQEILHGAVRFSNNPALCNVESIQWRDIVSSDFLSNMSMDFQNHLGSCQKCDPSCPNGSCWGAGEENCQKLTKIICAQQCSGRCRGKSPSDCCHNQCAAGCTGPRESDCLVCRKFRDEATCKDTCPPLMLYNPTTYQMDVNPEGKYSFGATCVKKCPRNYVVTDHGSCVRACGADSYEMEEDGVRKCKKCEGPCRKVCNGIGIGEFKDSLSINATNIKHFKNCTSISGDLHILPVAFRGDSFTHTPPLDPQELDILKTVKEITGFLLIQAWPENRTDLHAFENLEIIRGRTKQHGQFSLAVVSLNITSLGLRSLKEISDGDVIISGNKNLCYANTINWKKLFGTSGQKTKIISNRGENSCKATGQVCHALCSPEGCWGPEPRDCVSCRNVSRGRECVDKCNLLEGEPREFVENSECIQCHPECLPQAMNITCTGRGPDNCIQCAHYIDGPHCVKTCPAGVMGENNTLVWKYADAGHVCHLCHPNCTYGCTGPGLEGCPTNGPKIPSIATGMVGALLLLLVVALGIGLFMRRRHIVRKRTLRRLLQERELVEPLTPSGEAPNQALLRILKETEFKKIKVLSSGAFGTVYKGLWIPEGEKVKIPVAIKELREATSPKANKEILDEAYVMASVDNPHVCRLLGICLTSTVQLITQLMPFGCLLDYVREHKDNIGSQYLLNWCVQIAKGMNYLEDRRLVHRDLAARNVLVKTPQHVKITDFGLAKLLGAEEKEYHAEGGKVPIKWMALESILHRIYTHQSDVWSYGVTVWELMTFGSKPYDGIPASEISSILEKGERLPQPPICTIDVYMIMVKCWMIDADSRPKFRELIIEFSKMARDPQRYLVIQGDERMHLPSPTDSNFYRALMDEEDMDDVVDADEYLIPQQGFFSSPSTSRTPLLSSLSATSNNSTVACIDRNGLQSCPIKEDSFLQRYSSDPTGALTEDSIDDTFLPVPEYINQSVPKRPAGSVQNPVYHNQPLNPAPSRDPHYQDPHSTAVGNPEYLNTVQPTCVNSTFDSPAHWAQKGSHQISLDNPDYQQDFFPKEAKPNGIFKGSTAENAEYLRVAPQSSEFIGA

Compound	KINOMEscan: EGFR(G719S) [1]	KINOMEscan: PIK3CA(E545K) [2]	% Ctrl, SRPK2 [3] [% Ctrl]
COc1cc(C(=O)N2CCC(N3CCN(C)CC3)CC2)ccc1Nc1ncc2c(n1)N(C1CCCC1)c1ccccc1C(=O)N2C [Compound 25, 11-cyclopentyl-2-((2-methoxy-4-(4-(4-methylpiperazin-1-yl)piperidine-1-carbonyl)phenyl)amino)-5-methyl-5H-benzo[e]pyrimido[5,4-b][1,4]diazepin-6(11H)-one]	86	100	86
CCOc1cc(C(=O)N2CCC(N3CCN(C)CC3)CC2)ccc1Nc1ncc2c(n1)N(C1CCCC1)c1ccccc1C(=O)N2C [Compound 26]	96	100	100
COc1cc(C(=O)N2CCC(N3CCN(C)CC3)CC2)ccc1Nc1ncc2c(n1)N1CCc3cccc(c31)C(=O)N2C [Compound 24]	81	–	98
COc1cc(C(=O)N2CCC(N3CCN(C)CC3)CC2)ccc1Nc1ncc2c(n1)N(C)c1ccccc1C(=O)N2C [15 (LRRK2-IN-1)]	86	100	100
